These results are taken from US11788112B2, “L-2-hydroxyglutarate and stress induced metabolism” (Memorial Sloan-Kettering Cancer Center, priority 2014, dated 2023).

The target of one experiment is T1, purified human KDM4C (Homo sapiens, UniProt Q9H3R0).
T1 construct: GST; purchased BPS Bioscience
T1 sequence (Q9H3R0 1-1056): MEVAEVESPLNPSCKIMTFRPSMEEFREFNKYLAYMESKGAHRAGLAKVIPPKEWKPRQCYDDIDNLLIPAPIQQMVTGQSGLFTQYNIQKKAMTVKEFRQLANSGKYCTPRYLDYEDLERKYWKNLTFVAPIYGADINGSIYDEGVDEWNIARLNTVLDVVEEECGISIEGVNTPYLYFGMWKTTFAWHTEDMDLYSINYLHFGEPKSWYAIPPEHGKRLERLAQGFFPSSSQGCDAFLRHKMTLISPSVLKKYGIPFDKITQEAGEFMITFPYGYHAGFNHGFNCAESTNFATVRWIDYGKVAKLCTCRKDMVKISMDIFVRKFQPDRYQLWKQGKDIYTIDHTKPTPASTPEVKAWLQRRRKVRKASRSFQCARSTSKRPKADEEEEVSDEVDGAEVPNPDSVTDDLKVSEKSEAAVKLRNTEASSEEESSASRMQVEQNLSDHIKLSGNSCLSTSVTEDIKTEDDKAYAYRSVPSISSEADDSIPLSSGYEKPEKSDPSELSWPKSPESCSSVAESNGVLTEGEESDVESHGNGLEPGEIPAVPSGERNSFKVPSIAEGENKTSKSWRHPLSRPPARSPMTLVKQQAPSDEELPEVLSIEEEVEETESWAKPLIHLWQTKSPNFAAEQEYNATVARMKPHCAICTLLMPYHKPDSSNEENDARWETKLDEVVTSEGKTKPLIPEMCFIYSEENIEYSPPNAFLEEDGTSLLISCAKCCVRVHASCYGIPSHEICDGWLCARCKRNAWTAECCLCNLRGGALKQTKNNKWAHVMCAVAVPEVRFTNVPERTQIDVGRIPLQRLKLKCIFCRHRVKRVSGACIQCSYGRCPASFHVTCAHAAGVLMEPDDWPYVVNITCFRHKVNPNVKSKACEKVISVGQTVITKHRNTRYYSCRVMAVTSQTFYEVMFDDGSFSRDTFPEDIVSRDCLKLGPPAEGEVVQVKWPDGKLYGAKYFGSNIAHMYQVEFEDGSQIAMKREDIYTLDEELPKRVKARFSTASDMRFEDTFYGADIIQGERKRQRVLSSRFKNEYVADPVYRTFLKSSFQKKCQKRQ
The experiment in a line: In vitro histone demethylase assay (H3K9me3 by Western blot). It counts as biochemical. To be noted: bulk histones, α-KG 1 mM, 37° C. for 4 hr, various concentrations. In general terms: In western blotting, separated proteins are transferred to a membrane and probed.

For another experiment, the target named is T2, KDM4C (Homo sapiens, UniProt Q9H3R0).
T2 sequence (Q9H3R0 1-1056): T1 sequence (Q9H3R0 1-1056)
The settings on record: prior reports (Chowdhury et al., 2011; Lu et al., 2012); cited from earlier work.

The subject of another experiment is SF188 cells. Nature of the experiment: Intracellular 2HG by GC-MS in SF188 cells supplemented with cell-permeable α-KG. It counts as cell-based, human. To be noted: 48 hr, 5 mM dimethyl-α-KG vs vehicle (DMSO). As for the experimental part:
FIG. 2 depicts quantified results of GC-MS histograms showing that hypoxia-induced L-2HG originates from glutamine-derived α-ketoglutarate. Panels in (A and B) are line-drawings showing the fraction of intracellular 2HG labeled by ^13C at the indicated time. Isotope tracing was performed in SF188 cells cultured in medium containing either [U-^13C]glucose or [U-^13C]glutamine. […] Panels in (C) are bar graphs showing normalized 2HG. SF188 cells were cultured for 48 hr in 21% or 0.5% O2 in the presence of vehicle (DMSO) or 5 mM dimethyl-α-KG. Total intracellular 2HG was assessed by GC-MS. […] Representative data from 1 of 3 independent experiments are shown. Panels in (D and E) are GC-MS histograms showing 2HG ions in different conditions. SF188 cells were cultured as in (C), then chiral derivatization of metabolites was performed to allow separation of 2HG enantiomers by GC-MS. Panels in (D) show an overlay of GC-MS histograms for 2HG on the same scale. […]
Metabolites were extracted with 1 mL ice-cold 80% methanol supplemented with 2 micromolar deuterated 2-hydroxyglutarate (D-2-hydroxyglutaric-2,3,3,4,4-d5 acid; deuterated-D-2HG) as an internal standard. […] Samples were analyzed using an Agilent 7890A GC coupled to Agilent 5975C mass selective detector. […] Ions used for quantification of metabolite levels were 2HG m/z 247 and deuterated-2HG m/z 252. […]

As to `O=C(O)CC[C@H](O)C(=O)O` [L-2HG, L-2-hydroxyglutarate], the “inhibition of KDM4C demethylation of H3K9me3” value at purified human KDM4C is on record as “sensitive to inhibition by L-2HG, in a dose dependent manner”. The “inhibition of KDM4C” value on KDM4C was “roughly comparable inhibition”. Turning to `COC(=O)CCC(=O)C(=O)OC` [dimethyl-α-KG, dimethyl alpha-ketoglutarate], the “increase in intracellular 2HG” value with SF188 cells (hypoxia (0.5% O2), confirmed to be L-2HG by chiral derivatization) is recorded as around 100 fold; in the experiment on SF188 cells (normoxia (21% O2)), “modest increase”. As for D-2-hydroxyglutarate [D-2HG], the “inhibition of KDM4C” value at KDM4C is reported as “roughly comparable inhibition”.
